In patent US20040092581A1, “Ratjadone derivatives for inhibiting cell growth” (priority 2001, published 2004):
≈ marks a conversion by molar mass, not a printed value. Read-outs that look alike come from different tables or passages of the source. Marks after values point to notes of the source that are not given here.

Legend:
[1] = tested on: HeLa cells (KB3.1); settings: cited from earlier work
[2] = tested on: Glioblastoma cells; experiment: Influence on the cell cycle, continuous flow cytometry, glioblastoma cells; type: cell-based; settings: 20 nM, 48 h incubation
Experimental: (§1) Glioblastoma cells and HepG2 cells (liver carcinoma cells) were in each case incubated for 48 h without the substance 1 according to the invention and in nutrient medium containing various concentrations of the substance 1 according to the invention. The cells were harvested and measured by continuous flow cytometry.
(§2) Bookmark not defined. to […]. for glioblastoma cells and […]. to […]. for HepG2 cells, in each case in plot form. In each case the DNA content is indicated on the X axis and the cell count is indicated on the Y axis. Bookmark not defined. to […]. were obtained in each case with 0 nM, 10 nM and 20 nM, respectively, of the preferred substance 1 according to the invention in the culture medium; the results shown in Figures […]. to […]. were obtained with 0 nM, 2 nM and 5 nM, respectively, of the preferred substance 1 according to the invention in the culture medium.
(§3) It can be seen that for both cell lines tested the absolute number and the number of cells in the S and in the G2 phase decreases with increasing concentration of substance 1. […] The preferred substance 1 according to the invention thus arrests the cell cycle in the G1 phase at the dosage suitable for the particular cell type.

[3] = tested on: HepG2 cells (liver carcinoma cells); experiment: Influence on the cell cycle, continuous flow cytometry, HepG2 cells; type: cell-based; settings: 5 nM, 48 h incubation
Experimental: as §1, §2, §3

[4] = tested on: glioblastoma cells growing on a conventional carrier; experiment: Shape and carrier adhesion of glioblastoma cells; type: cell-based; settings: 50 nM
Description: In addition, the shape of glioblastoma cells growing on a conventional carrier as a function of the concentration of the substance 1 according to the invention was investigated (no figure). In the absence of substance 1 the cells have their typical dendritic shape and adhere to (sic) the carrier surface.

[5] = tested on: HM02 (gastroadenocarcinoma); experiment: cells; type: cell-based; settings: for CC50: read-out: LC50; for TGI: complete inhibition of cell growth
Experimental: (§4) The tables below show the influence of the substances 1, 36 and 37 according to the invention on the growth of tumor cells, specifically the growth of the cell lines HM02 (gastroadenocarcinoma), HepG2 (liver carcinoma) and MCF 7 (mammary carcinoma).
(§5) The studies were carried out in accordance with the NCI guidelines (Grever et al., Seminars in Oncology 19 (1992), 622-638). The cells were cultured in 96-well microtitre plates in RPMI 1640 medium with 10% FCS (foetal calf serum). 24 h after dissemination of the cells, the substances 1 and 36 according to the invention dissolved in methanol were added and the cells were incubated for a further 48 h. The cell count was then determined.
(§6) GI50: denotes the concentration that effects a semi-maximum inhibition of the cell growth
(§7) TGI: denotes the concentration that effects complete inhibition of the cell growth

[6] = tested on: HepG2 (liver carcinoma); experiment: cells; type: cell-based; settings: for TGI: complete inhibition of cell growth; for CC50 / GI50 / inhibition at 0.5 µg/mL: Homo sapiens; for CC50: read-out: LC50; for inhibition at 0.5 µg/mL: HEP-G2, at 500 ng/ml, read-out: growth inhibition
Experimental: as §4, §5, §6, §7

[7] = tested on: MCF 7 (mammary carcinoma); experiment: cells; type: cell-based; settings: for CC50 / GI50: Homo sapiens; for CC50: read-out: LC50; for TGI: complete inhibition of cell growth
Experimental: as §4, §5, §6, §7

[8] = MCF7, MCF 7, 48 h incubation, semi-maximum inhibition of cell growth, read-out: GI50

Row | Structure (SMILES) | IC50, inhibition of growth of HeLa cells (KB3.1) [1] | cell cycle phase distribution (G1 arrest) [2] | cell cycle phase distribution (G1 arrest) [3] | cell shape and adhesion to the carrier surface [4] | CC50 ([5]; HM02, 48 h) | TGI ([5]; HM02, 48 h incubation) | GI50 ([5]; HM02, 48 h incubation, semi-maximum inhibition of cell growth, read-out: GI50) | TGI ([6]; HEP-G2, 48 h incubation) | CC50 ([6]; HepG2, 48 h) | GI50 ([6]; HepG2, HEP-G2, 48 h incubation, semi-maximum inhibition of cell growth, read-out: GI50) | inhibition at 0.5 µg/mL ([6]; HepG2) | CC50 ([7]; MCF7, 48 h) | GI50 [7, 8] | TGI ([7]; MCF 7, 48 h incubation) | GI50 ([5]; HM02, 48 h) | GI50 ([6]; HepG2, 48 h) | GI50 ([7]; MCF7, 48 h) | inhibition at 0.1 µg/mL ([5]; HM02, read-out: growth inhibition)
1 | C/C=C/[C@@H]1O[C@H]([C@H](O)/C=C/C=C(\C)C[C@@H](C)/C=C(C)\C=C\[C@H]2CC=CC(=O)O2)C[C@@H](O)[C@@H]1C [Ratjadon, ratjadon] | 0.05 ng/mL | – | – | – | – | – | – | – | – | – | – | – | – | – | – | – | – | –
2 | C/C=C/[C@H]1O[C@@H]([C@@H](O)/C=C/C=C(\C)C[C@@H](C)/C=C(C)\C=C\[C@H]2CC=CC(=O)O2)C[C@H](O)[C@H]1C [Substance 1] | – | virtually all cells tested are in the G1 phase | virtually all cells tested are in the G1 phase | the cells have largely lost their dendritic shape and detach easily from the carrier surface | 250 ng/mL (≈ 0.547 µM) | 24 ng/mL (≈ 0.0526 µM) | < 5 ng/mL | 500^b ng/ml | > 500 ng/mL | 13 ng/mL (≈ 0.0285 µM) | 80% | < 500 ng/mL | 16 ng/mL (≈ 0.035 µM) | >500^b ng/ml | – | – | – | –
3 | CC(=C/[C@H](C)C/C(C)=C/C=C/[C@H](O)[C@H]1CCCCO1)/C=C/[C@H]1CC=CC(=O)O1 [Substance 36] | – | – | – | – | > 500 ng/mL | 140 ng/mL (≈ 0.362 µM) | – | >500^c ng/ml | > 500 ng/mL | – | 60% | > 500 ng/mL | – | >500^c ng/ml | 5 ng/mL (≈ 0.0129 µM) | 58 ng/mL (≈ 0.15 µM) | 100 ng/mL (≈ 0.259 µM) | –
4 | C/C=C/[C@H]1O[C@@H]([C@@H](O)/C=C/C=C(\C)C[C@@H](C)/C=C(C)\C=C\[C@@H]2CC=CC(=O)O2)C[C@H](O)[C@H]1C [Substance 37] | – | – | – | – | > 100 ng/mL | >100^a ng/ml | – | >100 ng/mL | > 100 ng/mL | – | – | > 100 ng/mL | 25 ng/mL (≈ 0.0547 µM) | >100 ng/mL | 17 ng/mL (≈ 0.0372 µM) | 85 ng/mL (≈ 0.186 µM) | – | 90%
